What all share (type): functional
The subject of one assay is Aspergillus fumigatus. In words: Antifungal activity against Aspergillus fumigatus.
Assay [1] has as its system Candida albicans. The assay can be described thus: Antifungal activity against Candida albicans in Sabouraud dextrose broth.
Assay [2] deals with Candida albicans. The assay can be described thus: Antifungal activity against Candida albicans in RPMI medium.

≈ marks a conversion by molar mass, not a printed value.

The text below walks through data of ChEMBL document CHEMBL1155713, “Three new peroxides from the sponge Plakinastrella species” (2001).

Usually IC90 stands for the point of the concentration-response curve where the effect stands at 90%. A lower IC90 goes with an effect from little substance. Broadly, the MIC is the lowest concentration that inhibits growth of the organism. A high value points to a less susceptible organism. Take `CC/C=C/C=C/C=C/CCCCCCCC[C@@]1(C)C[C@](C)(CC(=O)O)OO1` [EPIPLAKINIC ACID F]: it took 25 µg/mL (≈ 66 µM) to reach the 90% level in the assay with Aspergillus fumigatus (IC90). Also, the results for the MIC in the assay with Candida albicans [1] and in the assay on Candida albicans [2] were 25 µg/mL (≈ 66 µM) and 6.25 µg/mL (≈ 16.5 µM), respectively.

Take `CC/C=C/C=C/C=C/CCCCCCCC[C@]1(C)C[C@](C)(CC(=O)O)OO1` [PLAKINIC ACID F]: it took 25 µg/mL (≈ 66 µM) to reach the 90% level with Aspergillus fumigatus (IC90). Besides, the figures for the MIC against Candida albicans [1] and in the assay on Candida albicans [2] were 25 µg/mL (≈ 66 µM) and 3.1 µg/mL (≈ 8.19 µM), respectively.

Consider `C[C@@]1(CCCCCCCCCc2ccc(O)cc2)C[C@]2(C)OC(=O)C[C@@H]2OO1` [PLAKORTOLIDE F], for which the concentration for an effect of 90% (IC90) in the assay on Aspergillus fumigatus is over 125 µg/mL. Moreover, the MIC in the assay with Candida albicans [1] and in the assay with Candida albicans [2] was over 125 µg/mL throughout.
